Patent US20240381872A1, “SUBSTITUTED 2,3-DIHYDRO[1,3]THIAZOLO[4,5-B]PYRIDINES, SALTS THEREOF AND THEIR USE AS HERBICIDALLY ACTIVE SUBSTANCES” (BAYER AKTIENGESELLSCHAFT, priority 2021, published 2024)

How the values were obtained:
Type in all cases: in vivo
Veronica persica (VERPE) = assay: Herbicidal post-emergence action, section E (Table E9); details: visual assessment ca. 3 weeks after spraying; for pest or weed control at 320 g/ha / pest or weed control at 80 g/ha: Veronica persica, 504 h, read-out: post-emergence activity against VERPE in %; for pest or weed control at 80 g/ha: application rate 80 g/ha
Outline: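 Effect was rated visually as percent damage relative to untreated plants (100% = died off) about 3 weeks after treatment. Single-leaf-stage plants, 2 to 3 weeks old and grown in sandy loam under glass, had received WP or EC formulations sprayed in water with 0.5% additive at 600 l/ha.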

Zea mays (ZEAMX) [1] = assay: Post-emergence effects on crop plants, section F (Table F1); details: for percent crop plant damage (phytotoxicity) on Zea mays, post-emergence at 320 g/ha / post-emergence activity against ZEAMX in %: application rate 320 g/ha; for post-emergence activity against ZEAMX in %: crop plant damage
Outline: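 Percent damage was rated by eye roughly 3 weeks after treatment against untreated plants, where 0% = as control and 100% = died off. Spraying used WP or EC formulations plus 0.5% additive at 600 l water/ha, with rates of 320 g/ha or less. Plants were at the single-leaf stage, sown 2-3 weeks earlier in sandy loam under greenhouse conditions.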

Glycine max (GLXMA) = assay: Pre-emergence effects on crop plants, section D (Table D4); details: visual grading after ca. 3 weeks
Outline: (§1)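 Formulated compound (wettable powder or emulsifiable concentrate) was applied pre-emergence to the soil surface at 320 g/ha or lower. Greenhouse-grown plants were rated visually for percent damage after ca. 3 weeks.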

Zea mays (ZEAMX) [2] = assay: Pre-emergence effects on crop plants, section D (Table D1); details: visual grading after ca. 3 weeks
Outline: as §1

[3] = tested on: Digitaria sanguinalis (DIGSA); assay: Herbicidal pre-emergence action, section C (Table C12); details: visual grading after ca. 3 weeks; for pest or weed control at 320 g/ha / pest or weed control at 80 g/ha: Digitaria sanguinalis, pre-emergence, 504 h, read-out: pre-emergence activity against DIGSA in %; for pest or weed control at 320 g/ha / pre-emergence activity against DIGSA in %: application rate 320 g/ha; for pest or weed control at 80 g/ha: application rate 80 g/ha
Outline: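 Pre-emergence greenhouse test: visual percent damage scored about 3 weeks after treatment, relative to untreated pots (100% = dead, 0% = no effect). Formulated compounds (WP or EC, plus 0.5% additive) were applied in 600 l water/ha to the covering soil over seeds sown in sandy loam.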

[4] = tested on: Echinochloa crus-galli (ECHCG); assay: Herbicidal post-emergence action, section B (Table B3); details: application rate 1280 g/ha, rated visually after about 3 weeks; for pest or weed control at 1280 g/ha: Echinochloa crus-galli, 504 h, read-out: post-emergence activity against ECHCG in %
Outline: (§2)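 Activity was scored visually as percent of untreated controls about 3 weeks after spraying, where 100% meant dead plants and 0% meant no difference. Plants were treated at the one-leaf stage with WP or EC formulations in water containing 0.5% additive, applied at 600 liters per hectare.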

Setaria viridis (SETVI) [5] = assay: Herbicidal pre-emergence action, section A (Table A8); details: for pest or weed control at 320 g/ha / pest or weed control at 1280 g/ha: Setaria viridis, 504 h, read-out: pre-emergence activity against SETVI in %
Outline: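 Percent herbicidal effect, visually graded about 3 weeks post-treatment against untreated pots, reflects pre-emergence application of WP or EC formulations to the soil surface over seeds sown in sandy loam, using 0.5% additive and 600 l of water per hectare.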

Stellaria media (STEME) = assay: Herbicidal post-emergence action, section B (Table B9); details: visual rating about 3 weeks after treatment vs untreated controls; for post-emergence activity against STEME in % / pest or weed control at 1280 g/ha: application rate 1280 g/ha
Outline: as §2

Setaria viridis (SETVI) [6] = assay: Herbicidal post-emergence action, section B (Table B8); details: visual rating about 3 weeks after treatment vs untreated controls; for post-emergence activity against SETVI in % / pest or weed control at 1280 g/ha: application rate 1280 g/ha
Outline: as §2

[7] = Zea mays, 504 h, read-out: post-emergence activity against ZEAMX in %
[8] = Stellaria media, post-emergence, 504 h, read-out: post-emergence activity against STEME in %
[9] = Setaria viridis, post-emergence, 504 h, read-out: post-emergence activity against SETVI in %

| Structure (SMILES) | pest or weed control at 320 g/ha (Veronica persica (VERPE); application rate 320 g/ha) [%] | percent crop plant damage (phytotoxicity) on Zea mays, post-emergence at 320 g/ha (Zea mays (ZEAMX) [1]; [7]) [%] | pre-emergence activity against GLXMA in % (crop plant damage) (Glycine max (GLXMA); application rate 80 g/ha) [%] | pre-emergence activity against ZEAMX in % (crop plant damage) (Zea mays (ZEAMX) [2]; application rate 320 g/ha) [%] | pre-emergence activity against GLXMA in % (crop plant damage) (Glycine max (GLXMA); application rate 320 g/ha) [%] | pre-emergence activity against ZEAMX in % (crop plant damage) (Zea mays (ZEAMX) [2]; application rate 80 g/ha) [%] | pest or weed control at 80 g/ha [3] [%] | pest or weed control at 1280 g/ha [4] [%] | pest or weed control at 1280 g/ha (Stellaria media (STEME); [8]) [%] | also measured |
| --- | --- | --- | --- | --- | --- | --- | --- | --- | --- | --- |
| CC(C)C(=O)N1C[S+]([O-])c2cc(Br)c(-c3ccccc3)nc21 (stereo not drawn) [Example I-067] | 90 | 0 | 20 | 20 |  |  |  |  |  | pest or weed control at 320 g/ha [3]: 100% |
| Cc1cc2c(nc1-c1ccccc1Cl)NCS2 [Example I-049, 5-(2-chlorophenyl)-6-methyl-2,3-dihydro[1,3]thiazolo[4,5-b]pyridine] | 80 |  |  |  | 0 | 10 | 90 |  |  |  |
| BN1CSc2cc(Br)c(-c3ccccc3C)nc21 [Example I-011] |  |  |  | 10 | 0 |  |  |  |  | post-emergence activity against ZEAMX in % (Zea mays (ZEAMX) [1]): 0%; post-emergence activity against ECHCG in % [4]: 90%; pre-emergence activity against DIGSA in % [3]: 100%; pre-emergence activity against SETVI in % (Setaria viridis (SETVI) [5]; application rate 1280 g/ha): 90%; post-emergence activity against STEME in % (Stellaria media (STEME)): 90%; post-emergence activity against SETVI in % (Setaria viridis (SETVI) [6]): 90% |
| CCOCCS(=O)(=O)N1C[S+]([O-])c2cc(C)c(-c3ccccc3F)nc21 (stereo not drawn) [Example I-127] | 90 |  | 20 |  |  | 20 | 100 | 90 | 90 | percent crop plant damage (phytotoxicity) on Zea mays, post-emergence at 80 g/ha (Zea mays (ZEAMX) [1]; Zea mays, 504 h, application rate 80 g/ha, read-out: post-emergence activity against ZEAMX in %): 20%; pest or weed control at 320 g/ha (Setaria viridis (SETVI) [5]; application rate 320 g/ha): 100%; pest or weed control at 1280 g/ha (Setaria viridis (SETVI) [6]; [9]): 90% |
| CCS(=O)(=O)N1CSc2cc(C)c(-c3ccccc3F)nc21 [Example I-060, 3-(ethylsulfonyl)-5-(2-fluorophenyl)-6-methyl-2,3-dihydro[1,3]thiazolo[4,5-b]pyridine] |  | 0 | 0 |  |  | 20 | 100 | 90 |  | pest or weed control at 80 g/ha (Veronica persica (VERPE)): 80%; pest or weed control at 1280 g/ha (Setaria viridis (SETVI) [5]; application rate 1280 g/ha): 100%; pest or weed control at 320 g/ha (Stellaria media (STEME); Stellaria media, post-emergence, 504 h, application rate 320 g/ha, read-out: post-emergence activity against STEME in %): 90%; pest or weed control at 320 g/ha (Setaria viridis (SETVI) [6]; Setaria viridis, post-emergence, 504 h, application rate 320 g/ha, read-out: post-emergence activity against SETVI in %): 90% |
| Cc1cc2c(nc1-c1ccccc1F)N(S(=O)(=O)Cc1ccc(F)cc1)CS2 [Example I-122] |  |  | 10 | 0 |  |  |  |  |  | post-emergence activity against VERPE in % (Veronica persica (VERPE); application rate 320 g/ha): 90%; post-emergence activity against ZEAMX in % (Zea mays (ZEAMX) [1]): 0%; post-emergence activity against ECHCG in % [4]: 100%; pre-emergence activity against DIGSA in % [3]: 100%; pre-emergence activity against SETVI in % (Setaria viridis (SETVI) [5]; application rate 320 g/ha): 100%; post-emergence activity against STEME in % (Stellaria media (STEME)): 90%; post-emergence activity against SETVI in % (Setaria viridis (SETVI) [6]): 90% |
| CCS(=O)(=O)N1C[S+]([O-])c2cc(C)c(-c3ccccc3C)nc21 (stereo not drawn) [Example I-074] | 90 |  |  |  | 0 | 0 |  |  | 90 | pest or weed control at 320 g/ha [3]: 100%; pest or weed control at 320 g/ha (Setaria viridis (SETVI) [5]; application rate 320 g/ha): 100%; pest or weed control at 1280 g/ha (Setaria viridis (SETVI) [6]; [9]): 90% |
| Fc1ccccc1-c1nc2c(cc1Br)SCN2 [Example I-001, 6-bromo-5-(2-fluorophenyl)-2,3-dihydro[1,3]thiazolo[4,5-b]pyridine] |  | 10 |  |  | 0 | 10 |  |  |  | pest or weed control at 80 g/ha (Veronica persica (VERPE)): 80% |
| CCc1ccccc1-c1nc2c(cc1C)[S+]([O-])CN2 (stereo not drawn) [Example I-047] | 80 | 0 |  | 20 | 20 |  | 90 | 90 | 90 | pest or weed control at 1280 g/ha (Setaria viridis (SETVI) [5]; application rate 1280 g/ha): 100% |
